Several values for one entry are separate records, joined by “and”; a condition that tells them apart may be missing. Equal values may be shown once. Entries after “also recorded” stand apart in the source; their conditions may differ. Read-outs that look alike come from different tables or passages of the source.
How the values were obtained:
hDOR [1] = target: T1, hDOR (Homo sapiens, UniProt P41143); assay: Tango β-arrestin recruitment assay, hDOR; format: cell-based; set-up: expressed in transfected cells; host or cells: HTLA cells expressing TEV fused-beta-Arrestin2
mMOR [2] = target: T2, mMOR (Mus musculus, UniProt P42866); assay: Radioligand competition binding ([125I]IBNtxA), CHO membranes, mMOR; details: vs 125IBNtxA (0.1 nM), mean ± SEM
T2 construct: expressed in transfected cells

[3] = target: T3, mouse mu opioid receptor (mMOR) (Mus musculus, UniProt P42866); assay: cell-based; format: cell-based
T3 construct: expressed in transfected cells; host or cells: HEK-293T, transient (PEI), with BRET sensor cDNAs

mDOR [4] = target: T4, mDOR (Mus musculus, UniProt P32300); assay: Radioligand competition binding ([125I]IBNtxA), CHO membranes, mDOR; details: vs 125IBNtxA (0.1 nM), CHO membranes, mean ± SEM
T4 construct: expressed in transfected cells

hKOR [5] = target: T5, hKOR (Homo sapiens, UniProt P41145); assay: cAMP inhibition assay (GloSensor, HEK 293T), hKOR; format: cell-based; details: for Bias factor toward G protein, hKOR: cAMP inhibition vs Tango, against U50,488H as control; for EC50: read-out: Gi EC50 hKOR
T5 construct: expressed in transfected cells; host or cells: HEK 293T (ATCC CRL-11268), transient

mKOR [6] = target: T6, mKOR (Mus musculus, UniProt P33534); assay: [35S]GTPγS functional assay, mKOR; format: biochemical; details: for EC50: nM ± SEM
T6 construct: expressed in transfected cells

[7] = target: T3, mouse mu opioid receptor (mMOR); assay: cell-based; format: cell-based; remark: listed apart in the source
hDOR [8] = target: T1, hDOR; assay: cAMP inhibition assay, hDOR; format: cell-based; set-up: expressed in transfected cells
mDOR [9] = target: T4, mDOR; assay: [35S]GTPγS functional assay, mDOR; format: biochemical
[10] = target: T7, rat kappa opioid receptor (rKOR) (Rattus norvegicus, UniProt P34975); assay: BRET assay, G-protein activation, rKOR; format: cell-based; details: for EC50: read-out: Gi EC50 rKOR
T7 construct: expressed in transfected cells; host or cells: HEK-293T, transient (PEI), with BRET sensor cDNAs

hMOR [11] = target: T8, hMOR (Homo sapiens, UniProt P35372); assay: cell-based; format: cell-based
T8 construct: expressed in transfected cells; host or cells: HEK 293T (ATCC CRL-11268), transient

[12] = target: T7, rat kappa opioid receptor (rKOR); assay: BRET assay, arrestin recruitment, rKOR; format: cell-based; details: BRET
[13] = target: T9, mouse delta opioid receptor (mDOR) (Mus musculus, UniProt P32300); assay: BRET assay, arrestin recruitment, mDOR; format: cell-based; details: mDOR, BRET
T9 construct: expressed in transfected cells; host or cells: HEK-293T, transient (PEI), with BRET sensor cDNAs

[14] = target: T9, mouse delta opioid receptor (mDOR); assay: BRET assay, G-protein activation, mDOR; format: cell-based
hKOR [15] = target: T5, hKOR; assay: Tango β-arrestin recruitment assay, hKOR; format: cell-based; details: for Arrestin pEC50±SEM hKOR / EC50: WT-hKOR
hMOR [16] = target: T8, hMOR; assay: Tango β-arrestin recruitment assay, hMOR; format: cell-based; details: Tango
mKOR [17] = target: T6, mKOR; assay: Radioligand competition binding ([125I]IBNtxA), CHO membranes, mKOR; details: vs 125IBNtxA (0.1 nM), mean ± SEM
mMOR [18] = target: T2, mMOR; assay: [35S]GTPγS functional assay, mMOR; format: biochemical; details: for EC50: nM ± SEM
C57BL/6J mice = assay: 55° C. warm-water tail-withdrawal assay; format: in vivo, mouse; details: icv, 55° C. tail withdrawal
Method: Tail-withdrawal assay The 55° C. warm-water tail-withdrawal assay was conducted in mice as a measure of acute thermal antinociception as described previously (Reilley et al., 2010). Briefly, each mouse was tested for baseline tail-withdrawal latency prior to drug administration. Following drug administration, the latency for each mouse to withdraw the tail was measured every 10 minutes until latency returned to the baseline value. A maximum response time of 15 seconds was utilized to prevent tissue damage. […] Data are reported as percent antinociception, calculated by the equation: % antinociception=100×[(test latency−baseline latency)/(15−baseline latency)]. This was utilized to account for innate variability between mice. Compounds were administered either, […] (IP) or intracerebroventricular (icv) and the analgesic action of compounds was assessed at the peak effect as described previously (Haley and McCormick, 1957). In brief, mice were anesthetized using isoflurane. A small incision was made, and the drug (2 μl/mouse) was injected (using a 10 μL Hamilton syringe fitted to a 27-gauge needle) into the right lateral ventricle at the following coordinates: 2 mm caudal to bregma, 2 mm lateral to sagittal suture, and 2 mm in depth. Mice were tested for analgesia at the peak effect post injection.

Y312W-hKOR [19] = target: T10, Y312W-hKOR (Homo sapiens, UniProt P41145, Y312W); assay: Tango-arrestin recruitment assay, Y312W-hKOR mutant; format: cell-based; set-up: expressed in transfected cells; details: Tango, compared with wild-type KOR
Y312W-hKOR [20] = target: T10, Y312W-hKOR; assay: cAMP inhibition assay, Y312W-hKOR mutant; format: cell-based; set-up: expressed in transfected cells; host or cells: HEK 293T (inferred from the general cAMP method)

## O=C(N[C@@H]1C=CC2[C@H]3Cc4ccc(O)c5c4[C@@]2(CCN3CC2CC2)[C@H]1O5)c1cccc(I)c1 (some centres unmarked) [MP1104, reference compound]
hDOR [1]; hDOR, Tango
  Arrestin recruitment pEC50 ± SEM: 8.4 ± 0.06
  EC50: 3.73 nM
hDOR [1]; hDOR, Tango, normalized to DPDPE or DADLE
  Arrestin recruitment Emax % ± SEM: 189 ± 5.5%
mMOR [2]
  Ki: 0.021 nM
[3]
  Arrestin Emax mMOR: 53±1.6
  Arrestin pEC50±SEM mMOR: 9.55±0.12
[3]; read-out: Arrestin EC50 mMOR
  EC50: 0.285 nM
mDOR [4]
  Ki: 0.08 ± 0.01 nM
hKOR [5]; cAMP inhibition
  Gi pEC50±SEM hKOR: 11.74±0.04
  EC50: 0.00184 nM
hKOR [5]
  Bias factor toward G protein, hKOR: 0.18 and 0.2
hKOR [5]; cAMP inhibition, normalized to Emax of U50,488H
  Gi Emax hKOR: 107±1
mKOR [6]; [35S]GTPγS
  EC50: 0.027 ± 0.002 nM
mKOR [6]; [35S]GTPγS, relative to U50,488H
  mKOR Emax: 104 ± 2%
[7]
  Bias factor toward G-protein, mMOR: 0.1
  Gi Emax mMOR: 62±2
  Gi pEC50±SEM mMOR: 9.2±0.11
[7]; read-out: Gi EC50 mMOR
  EC50: 0.66 nM
hDOR [8]; hDOR
  EC50: 0.4 nM
  cAMP inhibition pEC50 ± SEM: 9.4 ± 0.04
hDOR [8]; hDOR, normalized to DPDPE or DADLE
  cAMP inhibition Emax % ± SEM: 99 ± 1.1%
mDOR [9]; [35S]GTPγS, nM ± SEM
  EC50: 0.41 ± 0.11 nM
mDOR [9]; [35S]GTPγS, relative to DPDPE
  mDOR Emax: 88 ± 0%
[10]; BRET
  Gi pEC50±SEM rKOR: 10.14±0.04
  EC50: 0.073 nM
[10]; BRET assays, against U50,488H as control
  Bias factor toward G-protein, rKOR: 0.23
[10]; BRET, normalized to Emax of U50,488H
  Gi Emax rKOR: 93±1
hMOR [11]
  Bias factor toward G protein, hMOR: 0.57 and 0.6
  Gi Emax hMOR: 94±1
  Gi pEC50±SEM hMOR: 10.13±0.05
hMOR [11]; read-out: Gi EC50 hMOR
  EC50: 0.074 nM
[12]
  Arrestin pEC50±SEM rKOR: 8.94±0.07
  EC50: 1.14 nM
[12]; normalized to Emax of U50,488H
  Arrestin Emax rKOR: 89±2.6
[13]
  Arrestin recruitment pEC50 ± SEM: 7.6 ± 0.11
  EC50: 26 nM
[13]; normalized to DPDPE
  Arrestin recruitment Emax % ± SEM: 40 ± 1.7%
[14]; mDOR, BRET
  EC50: 1.4 nM
  G-Protein activation pEC50 ± SEM: 8.9 ± 0.06
[14]; mDOR, BRET, normalized to DPDPE
  G-Protein activation Emax % ± SEM: 91 ± 1.7%
hKOR [15]; Tango
  Arrestin pEC50±SEM hKOR: 10.4±0.06
  EC50: 0.0394 nM
hKOR [15]; Tango, normalized to Emax of U50,488H
  Arrestin Emax hKOR: 117±2
hMOR [16]
  Arrestin pEC50±SEM hMOR: 9.24±0.08
  EC50: 0.573 nM
hMOR [16]; normalized to Emax of DAMGO
  Arrestin Emax hMOR: 90±2.28
mKOR [17]
  Ki: 0.0064 nM
mMOR [18]; [35S]GTPγS
  EC50: 0.21 ± 0.03 nM
mMOR [18]; [35S]GTPγS, relative to DAMGO
  mMOR Emax: 103 ± 2%

## N=C(N)NCc1cccc(C(=O)N[C@@H]2CCC3C4Cc5ccc(O)c6c5[C@@]3(CCN4CC3CC3)C2O6)c1 (stereo partly drawn) [MP1208, N-((7R,12bS)-3-(Cyclopropylmethyl)-9-hydroxy-2,3,4,4a,5,6,7,7a-octahydro-1H-4,12-methanobenzofuro[3,2-e]isoquinolin-7-yl)-3-(guanidinomethyl)benzamide]
hDOR [1]; hDOR, Tango
  Arrestin recruitment pEC50 ± SEM: 5.5 ± 0.27
  EC50: 3620 nM
hDOR [1]; read-out: Arrestin recruitment Emax % ± SEM
  Emax: 62 ± 16.7%
mMOR [2]
  Ki: 0.34 ± 0.01 nM
C57BL/6J mice
  antinociceptive ED50 (95% CI): 19.8 (12.6-34.0) nmol and 19.8 nmol
[3]
  arrestin recruitment at mMOR: no recruitment of βarrestin-2; also recorded: no arrestin recruitment was observed
mDOR [4]
  Ki: 19.3 nM
hKOR [5]; HEK-293T, read-out: Gi Emax hKOR
  Emax: 96 ± 1.9%
hKOR [5]; cAMP inhibition
  Gi pEC50±SEM hKOR: 9.9±0.07
  EC50: 0.14 nM
hKOR [5]
  Bias factor toward G protein, hKOR: 23
mKOR [6]
  Emax: 43 ± 0.8%
mKOR [6]; [35S]GTPγS
  EC50: 1.4 nM and 1.36 nM
[7]
  Gi pEC50±SEM mMOR: 8.64±0.29
[7]; read-out: Gi Emax mMOR
  Emax: 41 ± 3%
hDOR [8]; hDOR
  cAMP inhibition pEC50 ± SEM: 8.6 ± 0.13
hDOR [8]; read-out: cAMP inhibition Emax % ± SEM
  Emax: 39 ± 1.8%
mDOR [9]
  Emax: 10 to 15%
mDOR [9]; [35S]GTPγS
  efficacy at mDOR: only weak efficacy
mDOR [9]; [35S]GTPγS, antagonism vs 100 nM agonist
  IC50: 11.4 ± 0.3 nM
[10]; BRET
  Gi pEC50±SEM rKOR: 8.97±0.29
  EC50: 1.1 nM
[10]; read-out: Gi Emax rKOR
  Emax: 40 ± 2.4%
hMOR [11]
  EC50: 1.86 nM
hMOR [11]; HEK-293T, read-out: Gi Emax hMOR
  Emax: 42 ± 1.3%
hMOR [11]; read-out: Gi EC50 hMOR
  EC50: 0.008 nM
[12]
  arrestin recruitment at rKOR: no recruitment of βarrestin-2; also recorded: no arrestin recruitment was observed
[14]; mDOR, BRET
  EC50: 26.6 nM
  G-Protein activation pEC50 ± SEM: 7.6 ± 0.20
[14]; read-out: G-Protein activation Emax % ± SEM
  Emax: 58 ± 3.3%
hKOR [15]
  Emax: 48 ± 2.4%
hKOR [15]; Tango
  Arrestin pEC50±SEM hKOR: 7.79±0.14
  EC50: 16.4 nM
hMOR [16]
  arrestin recruitment at hMOR: no recruitment of arrestin was seen; also recorded: no arrestin recruitment was observed
mKOR [17]
  Ki: 0.28 nM
mMOR [18]
  Emax: 54 ± 0.7%
mMOR [18]; [35S]GTPγS
  EC50: 1.1 nM and 1.13 nM
Y312W-hKOR [19]
  arrestin recruitment at Y312W-hKOR: further reduction of arrestin recruitment; also recorded: reduced arrestin measurement
Y312W-hKOR [20]; cAMP inhibition
  Gi pEC50±SEM Y312W-hKOR: 10.44±0.05
Y312W-hKOR [20]; read-out: Gi Emax Y312W-hKOR
  Emax: 97 ± 1%

Source: patent US11613547B2 (priority 2019, dated 2023)
